In patent US10441590B2, “Methods for treating pulmonary hypertension” (Reviva Pharmaceuticals, Inc., priority 2015, dated 2019):
Structures can show the parent of a compound that is named as a salt. Where two headings read alike, the source gives them in different places.

Tests used:
Human recombinant D2S = Human recombinant D2S (Homo sapiens (Human), UniProt P14416); experiment: Dopamine D2S radioligand binding assay
Human recombinant 5-HT1A = Human recombinant 5-HT1A (Homo sapiens (Human), UniProt P08908); experiment: Serotonin 5HT1A radioligand binding assay
[1] = target: Human Cortex or Human recombinant 5-HT2A (Homo sapiens (Human), UniProt P28223); experiment: Serotonin 5HT2A radioligand binding assay
Human Cortex or Human recombinant 5-HT2A, sequence (P28223 whole entry): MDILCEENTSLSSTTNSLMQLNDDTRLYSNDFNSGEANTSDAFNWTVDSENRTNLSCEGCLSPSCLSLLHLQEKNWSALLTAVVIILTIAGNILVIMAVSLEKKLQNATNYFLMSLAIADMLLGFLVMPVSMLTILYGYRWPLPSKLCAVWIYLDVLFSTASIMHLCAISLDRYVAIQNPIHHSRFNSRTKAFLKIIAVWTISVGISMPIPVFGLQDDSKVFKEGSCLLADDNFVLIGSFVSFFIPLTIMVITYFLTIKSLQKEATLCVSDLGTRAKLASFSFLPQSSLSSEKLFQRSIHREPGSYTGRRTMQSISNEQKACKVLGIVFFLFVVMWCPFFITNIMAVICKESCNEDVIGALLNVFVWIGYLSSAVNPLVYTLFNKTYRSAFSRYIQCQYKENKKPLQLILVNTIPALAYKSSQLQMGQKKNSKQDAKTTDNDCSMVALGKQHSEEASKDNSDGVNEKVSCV

Human recombinant 5-HT2B = Human recombinant 5-HT2B (Homo sapiens (Human), UniProt P41595); experiment: Serotonin 5HT2B radioligand binding assay
Human recombinant 5-HT2B, sequence (P41595 whole entry): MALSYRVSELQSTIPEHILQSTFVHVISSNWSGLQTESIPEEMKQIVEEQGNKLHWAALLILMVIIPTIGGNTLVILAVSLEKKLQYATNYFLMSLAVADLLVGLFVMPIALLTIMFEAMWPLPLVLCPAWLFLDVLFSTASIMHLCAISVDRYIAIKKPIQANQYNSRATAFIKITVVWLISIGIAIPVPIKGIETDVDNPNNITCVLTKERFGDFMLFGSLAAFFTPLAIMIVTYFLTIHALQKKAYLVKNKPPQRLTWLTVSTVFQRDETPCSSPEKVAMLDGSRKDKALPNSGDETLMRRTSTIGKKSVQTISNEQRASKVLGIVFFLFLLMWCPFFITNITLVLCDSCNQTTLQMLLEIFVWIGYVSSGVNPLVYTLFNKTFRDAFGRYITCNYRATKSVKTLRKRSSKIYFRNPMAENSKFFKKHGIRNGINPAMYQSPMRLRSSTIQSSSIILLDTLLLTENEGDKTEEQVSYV

Human recombinant 5-HT6 = Human recombinant 5-HT6 (Homo sapiens (Human), UniProt P50406); experiment: Serotonin 5HT6 radioligand binding assay
Human recombinant 5-HT6, sequence (P50406 whole entry): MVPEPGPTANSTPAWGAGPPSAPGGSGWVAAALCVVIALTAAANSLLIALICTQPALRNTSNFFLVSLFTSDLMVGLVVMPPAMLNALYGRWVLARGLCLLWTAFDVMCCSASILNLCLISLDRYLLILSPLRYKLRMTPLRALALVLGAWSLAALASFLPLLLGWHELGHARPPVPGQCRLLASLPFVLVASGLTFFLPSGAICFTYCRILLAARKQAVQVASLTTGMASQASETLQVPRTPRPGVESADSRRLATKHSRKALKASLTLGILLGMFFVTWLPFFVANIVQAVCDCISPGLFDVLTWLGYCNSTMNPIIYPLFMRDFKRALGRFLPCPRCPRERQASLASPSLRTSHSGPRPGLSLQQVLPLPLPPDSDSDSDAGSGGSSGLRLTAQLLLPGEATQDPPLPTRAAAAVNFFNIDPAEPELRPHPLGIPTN

Human recombinant 5-HT7 = Human recombinant 5-HT7 (Homo sapiens (Human), UniProt P34969); experiment: Serotonin 5HT7 radioligand binding assay
Human recombinant 5-HT7, sequence (P34969 whole entry): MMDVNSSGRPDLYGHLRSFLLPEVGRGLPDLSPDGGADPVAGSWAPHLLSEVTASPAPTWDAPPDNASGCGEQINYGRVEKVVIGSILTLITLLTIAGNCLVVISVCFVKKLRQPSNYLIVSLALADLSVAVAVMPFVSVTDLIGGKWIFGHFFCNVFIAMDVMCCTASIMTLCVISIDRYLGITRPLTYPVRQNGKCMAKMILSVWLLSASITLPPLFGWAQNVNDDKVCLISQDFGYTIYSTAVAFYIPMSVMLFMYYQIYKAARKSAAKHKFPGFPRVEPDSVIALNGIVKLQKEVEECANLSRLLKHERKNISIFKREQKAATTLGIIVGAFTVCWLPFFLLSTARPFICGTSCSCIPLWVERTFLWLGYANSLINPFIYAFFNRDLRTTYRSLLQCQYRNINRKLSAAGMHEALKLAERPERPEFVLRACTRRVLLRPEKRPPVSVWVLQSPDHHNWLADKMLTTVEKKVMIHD

[2] = test system: monocrotaline-induced pulmonary arterial hypertension (PAH) in rats; experiment: Monocrotaline (MCT) induced pulmonary arterial hypertension rat model; type: in vivo; settings: for Body Weight gain / Diastolic pulmonary pressure / Lung weight / Mean pulmonary pressure / Oxygen saturation / Respiratory resistance / Right systolic ventricular pressure / Systolic pulmonary pressure: MCT rat, Day 0 to Day 27, Day 28
Source text: The purpose of this study was to assess the effect of the test articles on the monocrotaline-induced pulmonary arterial hypertension (PAH) in rats. The assay was designed to measure the pulmonary and systemic arterial blood pressures in anaesthetized rats with PAH induced by a single subcutaneous dose of monocrotaline. The results of the study are a quantitative measurement of the progression of the disease and its effects on the pulmonary arterial blood pressure (PAP), as well as wet organ weight in rats with induced PAH with and without treatment with test article or reference compound. Furthermore, a detailed morphometric and clinical investigation of the histology of the pulmonary vasculature was performed to correlate vascular remodeling with the functional impact of the onset of the PAH.
Male Wistar-Kyoto rats (Charles River Laboratories) weighing between 200 and 250 grams (approximately 10-12 week-old) were randomized across experimental groups, according to their body weight, with the aim of scheduling one animal per treatment group for each day of terminal surgery (when possible). […] Rats from treatment groups 2 to 4 received one subcutaneous injection of monocrotaline (MCT) solution (60 mg/kg) in DMSO on Day 0 and were returned to their cages. Rats from control group 1 received one subcutaneous injection of DMSO (vehicle for monocrotaline) on Day 0 and were returned to their respective cages. […] Food and water were given ad libitum. Daily observations of the behavior and general health status of the animals were done. Weekly blood draw, body weight and body temperature were taken.
On the day of surgery, the rats were anaesthetized, instrumented and hemodynamic parameters (systemic arterial blood pressure, right ventricular blood pressure, pulmonary arterial blood pressure, oxygen saturation, respiratory resistance, ventilatory pressure, respiration rate and heart rate) were recorded continuously for 5 minutes or until loss of quality in the pulmonary arterial pressure signal, whichever came first. The recordings included moving the pressure transducer from the right ventricular cavity to the pulmonary artery and back, observing the very clear transitions in diastolic pressures and general pressure waveforms as the catheter entered the artery, and was withdrawn into the ventricle. The rats were then exsanguinated and the pulmonary circulation was flushed with 0.9% NaCl. The trachea, lungs and heart were removed as a whole from the thoracic cavity. The right and left lobes of the lung were weighed before being perfused with 10% NBF and immersed in 10% formalin. The lungs were stored in 10% formalin at room temperature. The heart was excised to measure the wet weights of the right ventricle (RV) and left ventricle including the septum (LV-S) as part of the Fulton index calculation. Arterial blood pressure was recorded continuously throughout the experiment via an intra-arterial fluid-filled catheter (AD Instruments, Colorado Springs, Colo., USA). Diastolic and systolic pressures values were measured in mmHg using cursors readings in the Clampfit 10.2.0.14. Mean arterial blood pressure values were calculated using the following formula:
[formula] Values are presented as means±SEM (standard error of the means). Repeat unpaired Student's t-tests were performed in Microsoft Excel 2007 on all experimental conditions, comparing treatment groups to either the control, healthy animals, or the negative control animals (monocrotaline only). Differences were considered significant when p≤0.05. The study results are described in Table 2.

[3] = test system: Sugen-Hypoxia (SuHx) induced pulmonary arterial hypertension (PAH) in rats; experiment: Sugen-hypoxia (SuHx) induced pulmonary arterial hypertension rat model; type: in vivo; settings: for Body Weight gain / Diastolic pulmonary pressure / Lung weight / Mean pulmonary pressure / Oxygen saturation / Respiratory resistance / Right systolic ventricular pressure / Systolic pulmonary pressure: SuHx rat, Day 14 to Day 34, Day 35
Source text: The assay was designed to measure the pulmonary arterial blood pressures in anaesthetized rats with PAH induced by a single subcutaneous dose of Sugen combined with three weeks in hypoxia. Combined with a macroscopic and morphometric histological examination of the tissues harvested from the animals, the results of the provide a quantitative measurement of the progression of the disease on the systemic arterial blood pressure, pulmonary arterial blood pressure, as well as wet organ weight and vascular remodeling in rats with SuHx-induced PAH treated with test article, vehicle, or reference compound.
Male Wistar-Kyoto rats (Charles River Laboratories) weighing between 200 and 250 grams (approximately 10-12 week-old) were randomized across experimental groups according to their body weight, with the aim of scheduling one rat per treatment group for each day of terminal surgery (when possible). […] Rats from Groups 2 to 4 (see Table 3) received a single subcutaneous injection of sugen (20 mg/kg) in DMSO on Day 0 and returned to their cages. Rats from Group 1 received one subcutaneous injection of DMSO (vehicle for sugen) on Day 0 and returned to their respective cages. Groups 2-4 were placed in cages for which the controlled air was adjusted to receive a FiO2 equivalent to 0.10 (10%) using a mixture of nitrogen and ambient air controlled by the ventilated cage system. They were kept under these hypoxic conditions for 21 days. While in hypoxia, cages were cleaned and changed every 48 hours, exposing the animals to ambient oxygen levels for less than 5 minutes per cleaning session. The animals were then exposed to ambient oxygen levels from Day 22 to Day 35. Group 1 animals remained in cages exposed to ambient oxygen levels for 35 days. The animals were observed on a daily basis for any changes in their behavior and general health status. […] Food and water were given ad libitum. Daily observation of the behavior and general health status of the animals was done. Weekly blood draws and body weights were taken. On the day of surgery, the rats were anaesthetized, instrumented and hemodynamic parameters (systemic arterial blood pressure, right ventricular blood pressure, pulmonary arterial blood pressure, oxygen saturation, respiratory resistance, ventilatory pressure, respiration rate and heart rate) were recorded continuously for 5 minutes or until loss of quality in the pulmonary arterial pressure signal, whichever came first. The recordings included moving the pressure transducer from the right ventricular cavity to the pulmonary artery and back, observing the very clear transitions in diastolic pressures and general pressure waveforms as the catheter entered the artery, and was withdrawn into the ventricle. The rats were then exsanguinated and the pulmonary circulation was flushed with 0.9% NaCl. The trachea, lungs and heart were removed as a whole from the thoracic cavity. The right and left lobes of the lung were weighed before being perfused with 10% NBF and immersed in 10% formalin. The lungs were stored in 10% formalin at room temperature. The heart was excised to measure the wet weights of the right ventricle (RV) and left ventricle including the septum (LV-S) as part of the Fulton index calculation.
Mean arterial blood pressure values and Fulton's index were calculated using the following formula as described above in Example 2. The study results are described in Table 4.

Human recombinant D2S, sequence (P14416 other isoform, or with tags, fused parts or gaps): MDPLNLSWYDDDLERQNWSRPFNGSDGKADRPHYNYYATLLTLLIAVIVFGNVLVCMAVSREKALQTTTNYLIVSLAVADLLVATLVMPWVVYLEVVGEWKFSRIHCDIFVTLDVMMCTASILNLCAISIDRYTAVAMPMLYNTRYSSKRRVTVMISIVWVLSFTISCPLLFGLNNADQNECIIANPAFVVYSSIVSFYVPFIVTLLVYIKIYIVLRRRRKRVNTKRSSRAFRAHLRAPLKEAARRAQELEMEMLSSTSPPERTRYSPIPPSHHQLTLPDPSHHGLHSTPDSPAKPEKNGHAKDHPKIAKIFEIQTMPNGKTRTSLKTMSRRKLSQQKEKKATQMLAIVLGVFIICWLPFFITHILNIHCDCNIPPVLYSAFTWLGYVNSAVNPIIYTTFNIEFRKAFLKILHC

6-(4-(4-(2-methoxyphenyl)piperazin-1-yl)butoxy)-2H-benzo[b][1,4]oxazin-3(-4H)-one hydrochloride [Compound A]
Ki (Human recombinant D2S): 0.3 nM | Ki (Human recombinant 5-HT1A): 0.65 nM | Ki [1]: 118 nM

O=C1COc2ccc(OCCCCN3CCN(c4cccc(Cl)c4Cl)CC3)cc2N1 [Compound B, 6-(4-(4-(2,3-dichlorophenyl)piperazin-1-yl)butoxy)-2H-benzo[b][1,4]oxazin-3(4H)-one hydrochloride]
Ki ([1]; hydrochloride): 2.50 nM | Ki ([1]; listed as compound B, hydrochloride): 2.5 nM | Ki (Human recombinant 5-HT2B): 0.19 nM | Ki (Human recombinant 5-HT6): 51 nM | Ki (Human recombinant 5-HT7): 2.7 nM | efficacy for PAH ([2]; MCT induced PAH rat model, summary statement): demonstrated efficacy for PAH | Body Weight gain ([2]; 3 mg/kg bid oral gavage): 22.9 g | Diastolic pulmonary pressure ([2]; 3 mg/kg bid oral gavage): 19.2 mmHg | Lung weight ([2]; 3 mg/kg bid oral gavage): 0.86% | Mean pulmonary pressure ([2]; 3 mg/kg bid oral gavage): 32.0 mmHg | Oxygen saturation ([2]; 3 mg/kg bid oral gavage): 93.5% | Respiratory resistance ([2]; 3 mg/kg bid oral gavage): 15.7 | Right systolic ventricular pressure ([2]; 3 mg/kg bid oral gavage): 58.4 mmHg | Systolic pulmonary pressure ([2]; 3 mg/kg bid oral gavage): 57.7 mmHg | Body Weight gain ([2]; 10 mg/kg bid oral gavage): 23.1 g | Diastolic pulmonary pressure ([2]; 10 mg/kg bid oral gavage): 14.7 mmHg | Lung weight ([2]; 10 mg/kg bid oral gavage): 0.86% | Mean pulmonary pressure ([2]; 10 mg/kg bid oral gavage): 24.1 mmHg | Oxygen saturation ([2]; 10 mg/kg bid oral gavage): 96.5% | Respiratory resistance ([2]; 10 mg/kg bid oral gavage): 10.7 | Right systolic ventricular pressure ([2]; 10 mg/kg bid oral gavage): 43.1 mmHg | Systolic pulmonary pressure ([2]; 10 mg/kg bid oral gavage): 43.0 mmHg | severity of PAH (right ventricular hypertrophy, pulmonary artery pressure, respiratory resistance) ([2]; MCT, summary statement): decreasing the severity of PAH | efficacy for PAH ([3]; SuHx induced PAH rat model, summary statement): demonstrated efficacy for PAH | Body Weight gain ([3]; 10 mg/kg bid oral gavage): 66.7 g | Diastolic pulmonary pressure ([3]; 10 mg/kg bid oral gavage): 15.3 mmHg | Lung weight ([3]; 10 mg/kg bid oral gavage): 0.65% | Mean pulmonary pressure ([3]; 10 mg/kg bid oral gavage): 20.9 mmHg | Oxygen saturation ([3]; 10 mg/kg bid oral gavage): 95.9% | Respiratory resistance ([3]; 10 mg/kg bid oral gavage): 12.4 | Right systolic ventricular pressure ([3]; 10 mg/kg bid oral gavage): 32.8 mmHg | Systolic pulmonary pressure ([3]; 10 mg/kg bid oral gavage): 32.2 mmHg | Body Weight gain ([3]; 20 mg/kg bid oral gavage): 50.8 g | Diastolic pulmonary pressure ([3]; 20 mg/kg bid oral gavage): 14.7 mmHg | Lung weight ([3]; 20 mg/kg bid oral gavage): 0.62% | Mean pulmonary pressure ([3]; 20 mg/kg bid oral gavage): 20.4 mmHg | Oxygen saturation ([3]; 20 mg/kg bid oral gavage): 96.9% | Respiratory resistance ([3]; 20 mg/kg bid oral gavage): 11.1 | Right systolic ventricular pressure ([3]; 20 mg/kg bid oral gavage): 34.2 mmHg | Systolic pulmonary pressure ([3]; 20 mg/kg bid oral gavage): 32.0 mmHg | severity of PAH (right ventricular hypertrophy, pulmonary artery pressure, respiratory resistance) ([3]; SuHx, summary statement): decreasing the severity of PAH
